Assay results taken from article PMC6262321, “New Pim-1 Kinase Inhibitor From the Co-culture of Two Sponge-Associated Actinomycetes” (Frontiers in Chemistry, 2018).
Read-outs that look alike come from different tables or passages of the source.

How the values were obtained:
[1] = system: Pim-1; set-up: method as in Nakano et al., 2012; conditions: ligand of PDB code 3umw; ref Nakano et al., 2012; read-out: Pim-1 IC50 of co-crystalized ligand; cited from earlier work
[2] = system: human promyelocytic leukemia HL-60; assay: MTT antiproliferative assay, HL-60; type: cell-based; conditions: mean of 3 independent experiments, read-out: Antiproliferative activity IC50 ± S.D., HL-60 (head prints HL-6)
[3] = molecular target: T1, Pim-1 kinase (Homo sapiens, UniProt P11309); assay: Pim-1 kinase assay (HTScan Kinase Assay); type: biochemical
T1 construct: purchased Cell Signaling Technology

[4] = system: lung adenocarcinoma H1650; assay: MTT antiproliferative assay, H1650; type: cell-based; conditions: mean of 3 independent experiments, read-out: Antiproliferative activity IC50 ± S.D., H1650
Protocol: Cell proliferation was evaluated in cell lines by the MTT assay in triplicates. 10^4 cells were plated in a 96-well microtiter plate in a final volume of 100 μl of culture medium. Cells were treated for 24 h with test compound at 37 °C with 5% CO2. After treatment, the cells were immediately incubated with 10 μl MTT (5.0 mg/mL) for 4 h at 37°C. The cells were then lysed in 100 μl of lysis buffer (isopropanol, conc. HCl and Triton X-100) for 10 min at room temperature and 300 rpm/min shaking. The enzymatic reduction of MTT to formazan crystals that dissolved in DMSO was quantified by photometry at 570 nm. […] 5-Flurouracil was used as a positive control.

[5] = system: human colon adenocarcinoma HT-29; assay: MTT antiproliferative assay, HT-29; type: cell-based; conditions: mean of 3 independent experiments, read-out: Antiproliferative activity IC50 ± S.D., HT-29
[6] = Homo sapiens, HL-60, 24 h treatment
[7] = 50 ng Pim-1, 200 μM ATP, 1.5 μM biotinylated BAD Ser112 peptide, 30 min, mean of 3 independent experiments, read-out: In-vitro Pim-1 kinase inhibitory activity IC50 ± S.D.
[8] = Homo sapiens, NCI-H1650, 24 h treatment
[9] = Homo sapiens, HT-29, 24 h treatment

T1 sequence (P11309 whole entry): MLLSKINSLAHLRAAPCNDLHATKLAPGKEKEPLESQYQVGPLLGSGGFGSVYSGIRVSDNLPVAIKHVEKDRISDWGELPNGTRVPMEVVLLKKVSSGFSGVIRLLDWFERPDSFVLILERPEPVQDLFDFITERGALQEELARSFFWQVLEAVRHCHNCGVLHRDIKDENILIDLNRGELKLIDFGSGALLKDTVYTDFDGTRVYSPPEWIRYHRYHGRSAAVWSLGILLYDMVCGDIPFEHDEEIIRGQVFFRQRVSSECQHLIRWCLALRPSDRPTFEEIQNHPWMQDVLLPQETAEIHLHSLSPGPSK

IC50 [2, 6] [µM]	IC50 [3, 7] [µM]	IC50 [4, 8] [µM]	IC50 [5, 9] [µM]	IC50 ([2]; 24 h treatment) [µM]	IC50 ([4]; 24 h treatment) [µM]	IC50 ([5]; 24 h treatment) [µM]	Compound	IC50 [1] [µM]	IC50 [3] [µM]
							COc1ccc2c(c1CN1CCNCC1)OC(=Cc1n[nH]c3ccccc13)C2=O [co-crystalized ligand]	0.003	
> 100	> 20	> 100	> 100				OCCc1c[nH]c2ccccc12 [Compound 7, tryptophol]		
> 100	> 20	> 100	> 100				O=C(O)c1ccc2ccccc2c1O [Compound 10, 1-hydroxy-2-naphthoic acid]		
		> 100					COc1ccc(/C=C/C(=N)/C=C2/C(=O)Nc3cc(Br)ccc32)cc1 [Compound 1, (E)-6-bromo-3-((E)-2-imino-4-(4-methoxyphenyl)but-3-en-1-ylidene)indolin-2-one]		
				0.2 ± 0.43	0.5 ± 0.67	0.3 ± 0.35	O=c1[nH]cc(F)c(=O)[nH]1 [5-Flurouracil, reference compound]		
> 100	> 20	> 100	> 100				O=C(O)c1cc(O)c2ccccc2c1O [Compound 11, 1,4 dihydroxy-2-naphthoic acid]		
> 100	> 20	> 100	> 100				Cc1c[nH]c2ccccc12 [Compound 9, skatole]		
> 100	> 20	> 100	> 100				O=C(O)C(=O)Cc1c[nH]c2ccccc12 [Compound 8, indole-3-pyruvic acid]		
> 100	> 20	> 100	> 100				CC(=O)C[C@@]1(O)C(=O)Nc2cc(Br)ccc21 [Compound 2, (S) enantiomer of (R)-6-Bromo-3-hydroxy-3-(2 oxopropyl)indolin-2-one]		
> 100	> 20	> 100	> 100				CC(c1c[nH]c2ccccc12)c1c[nH]c2ccccc12 [Compound 5, vibrindole]		
> 100	> 20	> 100	> 100				O=Cc1c[nH]c2ccccc12 [Compound 6, indole-3-carbaldehyde]		

Compound	IC50 [2, 6] [µM]	IC50 [3, 7] [µM]	IC50 [4, 8] [µM]	IC50 [5, 9] [µM]	IC50 ([2]; 24 h treatment) [µM]	IC50 ([4]; 24 h treatment) [µM]	IC50 ([5]; 24 h treatment) [µM]	IC50 [1] [µM]	IC50 [3] [µM]
O=C1Nc2cc(Br)ccc2[C@@]1(O)c1c[nH]c2ccccc12 [Compound 3, (S) 6-bromo-3-hydroxy-3-(1H-indol-3-yl) indolin-2-one]			> 100						
C[C@@H]1C[C@H]2CC[C@H](O2)[C@H](C)C(=O)O[C@@H](C)C[C@@H]2CC[C@@H](O2)[C@@H](C)C(=O)O[C@H](C)C[C@H]2CC[C@H](O2)[C@H](C)C(=O)O[C@@H](C)C[C@@H]2CC[C@@H](O2)[C@@H](C)C(=O)O1 [Compound 4, Nonactin]	> 100		> 100	> 100					> 20
